The text below walks through data of publication PMC3404088, “Development of a Small D-Enantiomeric Alzheimer’s Amyloid-β Binding Peptide Ligand for Future In Vivo Imaging Applications” (PLoS ONE, 2012).

One test addresses T1, Aβ1–42 monomers (Homo sapiens, UniProt P05067).
T1 construct: Aβ1–42 peptide film was prepared from lyophilized powder (Bachem); purchased Bachem
Nature of the test: ELISA, compound binding to Aβ1–42 peptide film (predominantly monomers). The following applies: 10 µg/ml compound; for binding value, binding Aβ1–42 monomers: optical density after pNPP incubation. The procedure:
(§1) Aβ1–42 peptide film was prepared from lyophilized powder (Bachem). The powder was reconstituted in HFIP to a final concentration of 1 mM, sonicated for 15 min at room temperature (RT), agitated overnight (ON), and aliquoted into non-siliconized microcentrifuge tubes (12 µl corresponding to 55 µg). The HFIP was evaporated under a stream of argon. The resulting peptide film was vacuum dried for 10 min and stored at -80°C. For direct use as peptide film, an aliquot of Aβ1–42 peptide film was reconstituted with 0.54% dimethylsulphoxide (DMSO) in phosphate buffered saline (PBS) to obtain a final concentration of 10 µg/ml and then used for the ELISA as described below. To prepare fibrils, 55 µg aliquot of peptide film was dissolved in 55 µl of 50 mM Tris-HCl, pH 7.4 and incubated at 37°C for five days. Next, the sample was centrifuged (10’000 rpm for 5 min) and the pellet was diluted in 50 mM Tris-HCl, pH 7.4.
(§2) Aβ1–42 peptide preparations were diluted in 0.05 M bicarbonate-carbonate buffer pH 9.6, to the final concentration of 10 µg/ml and coated onto ELISA plates (MaxiSorp, Nunc). After blocking (PBS; 0.05% Tween; 1% BSA), plates were incubated with 2- or 3-fold dilutions of D-compounds (starting concentration: 10 µg/ml) and incubated for 2 h at 37°C. Plates were then washed and incubated for 2 h at 37°C with the detection antibody Rabbit-a-fluorescein isothiocyanate-AP (Sigma; 1∶10’000 dilution) followed by the incubation for 2.5 h at room temperature (RT) with 1 mg/ml of phosphatase substrate (pNPP, Sigma). The absorbance signal was read at 405 nm wavelength using a Tecan plate reader (Tecan Group Lt, Männedorf, Switzerland).
(§3) ELISA plates (MaxiSorp, Nunc) were coated with anti-Aβ antibody 6E10 (Covance) at a concentration of 5 µg/ml. Either monomeric Aβ1–42 peptide film (mainly monomeric) or Aβ1–42 fibrils, which were prepared as described above, were diluted in PBS to the final concentration 10 µg/ml and mixed with 10-fold dilutions of D-peptide compounds in Eppendorf tubes (starting concentration of D-peptide compounds: 10 µg/ml). The tubes were incubated for 2 h at 37°C. Next, samples were distributed onto the ELISA plate and kept for 2 h at 37°C. Plates were washed and incubated for 2 h at 37°C with the detection antibody Rabbit-a-fluorescein isothiocyanate-AP (Sigma; 1∶10′000 dilution) following the incubation overnight (ON) at RT with 1 mg/ml of phosphatase substrate (pNPP, Sigma). The absorbance signal was read at 405 nm wavelength using the Tecan plate reader (Tecan Group Ltd, Männedorf, Switzerland).
(§4) To verify the SPR results, ELISA was employed to assay the interaction of the ACI-80 derivatives ACI-80-Kϕ, ACI-81-Kϕ, ACI-82-Kϕ, ACI-83-Kϕ, ACI-84-Kϕ, ACI-85-Kϕ, ACI-86-Kϕ, ACI-87-Kϕ, [^19F]-ACI-87-Kϕ, ACI-88-Kϕ, [^19F]-ACI-88-Kϕ, ACI-89-Kϕ, [^19F]-ACI-89-Kϕ) with Aβ1–42 fibrils and Aβ peptide film in solution containing mostly monomers and smaller oligomers (Table 4). To avoid any bias by possible conformational influences the ELISA has been carried out in two versions, once with immobilized antibody and once with immobilized Aβ1–42 as described in the methods section. Both assays yielded similar results and confirmed each other. […] Panels A and B in Figure 2 show the results for binding to Aβ1–42 fibrils and panels C and D in Figure 2 show the results for binding to freshly prepared Aβ1–42 peptide film, which contains mostly monomeric Aβ. In Table 4, the performance of the peptides is expressed relative to that of ACI-80-Kϕ.

For test [1], the target named is T2, Aβ1–42 fibrils (Homo sapiens, UniProt P05067).
T2 construct: Aβ1–42 was dissolved in hexafluoroisopropanol (HFIP)
Nature of the test: ELISA, compound binding to Aβ1–42 fibrils. The settings on record: for binding value, binding Aβ1–42 fibrils: optical density after pNPP incubation. As to the method:
as §1, §2, §3, §4

Test [2] deals with T2, Aβ1–42 fibrils. The experiment in a line: Surface plasmon resonance (Biacore 1000), semi-quantitative binding to immobilized Aβ1–42 fibrils. The following applies: 50 µg/ml, PBS pH 7.4. The procedure: Aβ1–42 was dissolved in hexafluoroisopropanol (HFIP). After overnight incubation, HFIP was removed by evaporation. The Aβ1–42 film was dissolved in PBS buffer pH 7.4 to a concentration of 1 mg/ml and incubated for 7 days at 37°C. For the measurements, a Biacore 1000 (GE Healthcare) instrument was used. Aβ1–42 fibrils (6800 RU) were immobilized on a CM5 sensorchip (GE Healthcare) via amine coupling. The running and sample buffer was PBS, pH 7.4. To allow comparison between the ACI-80 compounds, but to avoid potential over-interpretation of the data by fitting multiple k on and k off values for a yet undefined number of different binding sites, only two values have been taken for further evaluation. Response units achieved under identical injection conditions allow comparison of binding strengths of the compounds. Dissociation rates among the compounds have been compared by measuring the remaining response units 60 s after end of injection as a measure for dissociation (k off). All measurements have been carried out using the same flow cells with identical concentrations and injection conditions. ACI-80-Kϕ derivatives were injected as analytes in a concentration of 50 µg/ml at a flow rate of 5 µl/min for 2 minutes at ambient temperature. The data were evaluated using BiaEvaluation 4.1. The interactions between Aβ1–42 and ACI-80-Kϕ derivatives are given in resonance units (RU) and in % of ACI-80-Kϕ response units. […] Aβ1–42 fibrils were immobilized on a Biacore sensor-chip as described in the methods section, and the interactions of the ϕ-labeled ACI-80 derivatives were measured and compared with original ACI-80-Kϕ. […] Therefore we decided for semi-quantitative comparison between all compounds only. The maximal responses in resonance units (RU) of the ϕ-labeled ACI-80 derivatives during the analyte injection and the remaining response 60 s after injection end (as a semi-quantitative measure for the dissociation rate), have been related to the respective values obtained from identical concentrations of ACI-80-Kϕ in percent.

Test [3] deals with T3, Aβ plaques in brain sections of transgenic APP (V717I) x PS1 (A246E) mice (Homo sapiens, UniProt P05067).
T3 construct: triple image overlay of respective stains reveal that the ϕ-compounds identify plaques; from tissue; host or cells: brain cryosections of APP (V717I) x PS1 (A246E) transgenic mice
The experiment in a line: Ex vivo staining of mouse brain slices by FITC labeled compounds. The settings on record: 0.01 mg/ml ϕ-labeled compound, 2 h; 10 µm cryostat sections; fluorescence microscopy. The procedure: In vitro tissue section staining was performed according to previously described protocols with slight modifications. Mouse brains were obtained from male transgenic (tg) APP (London mutation V717l) x PS1 (A246E) mice aged 13–21 months and from female wild type (wt) mice aged 9–10 months. The mice were anesthetized and transcardially perfused with saline. The brains were removed and snap frozen. 10 µm thick sagittal cryostat sections through the whole mouse brain were produced and mounted onto glass slides. ϕ-labeled compounds were applied to investigate binding. Thus, the slides were thawed, washed in PBS and fixed in 4% paraformaldehyde (20 min at RT) just before incubation with ϕ-labeled compounds. One series of sections was treated only with fluorescent compounds (0.01 mg/ml, incubation time 2 h) while another series of sections were incubated with anti-Aβ antibody 6E10 at 1∶500 dilution (SIG-39320, Covance; final antibody concentration was 2 µg/ml) in addition to ϕ-labeled compounds (0.01 mg/ml). The slices were washed in PBS. The sections incubated with ϕ-labeled compound and 6E10 antibody were further incubated for 2 h at RT with Goat-anti-Mouse IgG1– AlexaFluor 555 (A21127, Invitrogen, 1∶1000 dilution) and washed with PBS. Finally, all sections were counterstained with 4’–6-Diamidino-2-phenylindole (DAPI, 32670, Sigma, incubation 5 min at RT) for the visualization of cell nuclei. The slides were mounted using Prolong Gold Antifade mounting medium (P36930, Invitrogen) and coverslipped.
The tissues were analyzed using a fluorescent Zeiss Axioscope 2 Plus microscope using the AxioVision 4 image analysis software.
A further series of slices was stained using a primary anti-fluorescein isothiocyanate antibody combined with alkaline phosphatase reaction for visualization of ϕ-labeled peptides. Briefly, the sections were treated with blocking solution (10% normal goat serum (NGS), 0.25% Triton X-100 in PBS for 1 h at RT) and incubated with primary antibody (rabbit-anti-FITC; Invitrogen) at a dilution of 1∶500. The sections were then washed and incubated for 2 h at RT with the secondary antibody goat-anti-rabbit-alkaline phosphatase (Sigma) at a dilution of 1∶100. After washing, the slides were incubated with BCIP/NBT substrate (Sigma) for 3 min, washed, dehydrated and mounted using Eukitt mounting medium.

The mark [4] stands for this setting: value of one single experiment only.
[5] abbreviates: 10 µg/ml compound, value of one single experiment only.

As for “QSHYRHISPAQKK[^19F]ϕ [[^19F]-ACI-87-Kϕ, fluorinated ϕ-labeled ACI-87]”, the “binding value, binding Aβ1–42 monomers” value on Aβ1–42 monomers (setting [4]) is reported as “*0.86”. Also, the “ELISA binding to Aβ1–42” value on Aβ1–42 fibrils [1] is on record as “bound well to Aβ1–42 fibrils”. For the same substance, the “binding value, binding Aβ1–42 fibrils” value on Aβ1–42 fibrils [1] (setting [5]) was “*1.26”. For the same substance, the “SPR response as compared to ACI-80-Kϕ” value on Aβ1–42 fibrils [2] is listed as “decreased response in comparison to the compound without label”. Also, the “staining / recognition of Aβ plaques” value in test [3] was “readily recognized amyloid plaques”.

Turning to “SHYRHISPAQKK[^19F]ϕ [[^19F]-ACI-88-Kϕ, fluorinated ϕ-labeled ACI-88]”, the “binding value, binding Aβ1–42 monomers” value at Aβ1–42 monomers (setting [4]) was “*1.05”. For the same substance, the “ELISA binding to Aβ1–42” value on Aβ1–42 fibrils [1] is on record as “bound well to Aβ1–42 fibrils”. In addition, the “binding value, binding Aβ1–42 fibrils” value at Aβ1–42 fibrils [1] (setting [5]) is listed as “*1.76”. Also, the “off-rate based on remaining response 60 s after injection end” value on Aβ1–42 fibrils [2] is reported as “slowest off-rate of all tested compounds”. In addition, the “staining / recognition of Aβ plaques” value in test [3] was “readily recognized amyloid plaques”.

As for “ZSHYRHISPAQVKϕ [ACI-81-Kϕ, ϕ-labeled ACI-80 derivative, Q1Z]”, at Aβ1–42 monomers (ACI-80-Kϕ = 100), the “% binding relative to ACI-80-Kϕ, Aβ1–42 monomers” value worked out at 27%. On Aβ1–42 monomers (average of two or three experiments), the “binding value, binding Aβ1–42 monomers” value turned out to be 0.13. Further, the “% binding relative to ACI-80-Kϕ, Aβ1–42 fibrils” value at Aβ1–42 fibrils [1] (10 µg/ml compound, ACI-80-Kϕ = 100) is given as 22%. For the same substance, on Aβ1–42 fibrils [1] (10 µg/ml compound, average of two or three experiments), the “binding value, binding Aβ1–42 fibrils” value was 0.20. Further, the “SPR response as compared to ACI-80-Kϕ” value on Aβ1–42 fibrils [2] was “not significantly increased”.
